Test results from patent US10005735B2, “Inhibitors of RPN11” (California Institute of Technology, priority 2015, dated 2018).

Experiments:
[1] = target: T1, Rpn11 (Homo sapiens (Human), UniProt O00487); assay: Rpn11 activity assay (fluorescence polarization, Ub4-pepOG cleavage by 26S proteasome); assay type: biochemical; settings: for Rpn11 assay activity (in words): screening, compared with 8TQ
Text: Candidate compounds according to embodiments of the present invention were synthesized as described herein. […] In brief, this Rpn11 bioassay employs a fluorescent polarization readout based on the ability of the 26S proteasome to cleave the protein substrate including four tandem ubiquitin proteins fused to a peptide having a unique cysteine labeled with a fluorophore. Cleavage of this substrate by Rpn11 at the junction between the fourth ubiquitin and the peptide, releases the low molecular weight fluorescent peptide. Accordingly, inhibition of fluorescence correlates with inhibition of Rpn11. Inhibition is reported as the half maximal inhibitory concentration (IC50) for the candidate compound.
Rpn11 Activity Assay. […] In brief, in order to measure the Rpn11 activity, a synthetic peptide substrate, termed Ub4-pepOG, was engineered. […] Peptide substrate Ub4-pepOG consists of only 30 amino acids and therefore the decrease of polarization is mainly from deubiquitination but not the proteolysis of the peptide. Fluorescence polarization assay was performed in a low-volume 384 well solid black plate where the components are added in the follow sequence: 1) 5 μl compound in 3% DMSO or 3% DMSO control 2) 5 μl 26S proteasome (Enzo Life Sciences Inc, NY). […] Fluorescence polarization is measured using a PHERAstar (BMG labtech, Ortenberg, Germany) plate reader with excitation of 480 nm and emission of 520 nm filter set. […] Rpn11 activity was normalized to DMSO control and fitted using does-response curve.

[2] = target: AMSH (Homo sapiens (Human), UniProt O95630); assay: AMSH activity assay (DiUb^K63TAMRA cleavage, fluorescence); assay type: biochemical; settings: Table 2
AMSH, sequence (O95630 whole entry): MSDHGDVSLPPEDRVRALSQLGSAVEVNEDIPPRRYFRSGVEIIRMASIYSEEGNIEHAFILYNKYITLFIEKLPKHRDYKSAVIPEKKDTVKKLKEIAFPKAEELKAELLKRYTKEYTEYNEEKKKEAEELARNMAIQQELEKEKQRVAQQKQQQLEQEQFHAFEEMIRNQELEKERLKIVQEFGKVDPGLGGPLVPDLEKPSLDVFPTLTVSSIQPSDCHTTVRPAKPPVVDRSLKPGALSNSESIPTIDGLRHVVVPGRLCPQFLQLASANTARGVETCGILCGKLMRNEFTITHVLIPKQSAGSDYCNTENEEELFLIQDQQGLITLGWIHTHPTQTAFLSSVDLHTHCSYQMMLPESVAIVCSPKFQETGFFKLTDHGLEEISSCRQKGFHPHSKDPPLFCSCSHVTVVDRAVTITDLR
Text: AMSH Activity Assay. AMSH is known to selectively cleave ubiquitin chains in which the ubiquitins are joined via K63 of the proximal ubiquitin linked by an isopeptide bond to the carboxy terminus of the distal ubiquitin. […] In brief, DiUb^K63TAMRA was labeled with quench pairs TAMRA/QXL.

[3] = target: T1, Rpn11; assay: Rpn11 activity assay (fluorescence polarization, Ub4-pepOG cleavage by 26S proteasome); assay type: biochemical; settings: does not inhibit Csn5 or AMSH with the same potency as Rpn11
[4] = target: Csn5 (Homo sapiens (Human), UniProt Q92905); assay: Csn5 activity assay (fluorescence polarization, SCF^skp2-Nedd8OG, COP9 Signalosome Complex); assay type: biochemical; settings: Table 2
Method: Csn5 Activity Assay. […] In brief, a fluorescent substrate termed SCF^skp2-Nedd8OG was produced to measure CSN5 activity in vitro. This assay measures the decrease in fluorescence polarization due to the decrease in apparent molecular weight of Oregon Green (OG) fluorophore (from the ˜175 kDa substrate to ˜9 kDa Nedd8OG) as a result of Csn5-mediated cleavage of the isopeptide bond that links Nedd8OG to SCF^Skp2. The assay was performed in a low-volume 384 well solid black plate comprising equal volumes of compound, substrate (SCF^skp2-Need8OG) and enzyme (purified COP9 Signalosome Complex, CSN). Fluorescence polarization was recorded using the same setting as for the Rpn11 activity assay.

[5] = tested on: Ub^G76V-GFP; assay: Reporter degradation assay in Hela cells expressing Ub^G76V-GFP; assay type: cell-based; settings: Homo sapiens, after MG132 removal, cycloheximide chase
Method: Characterization of the Compound Activity in Cells. […] After 4 hours, MG132 was removed and a cycloheximide (CHX) chase was initiated +/− different concentrations of test compound and the rate of reporter degradation was evaluated by monitoring GFP fluorescence by high throughput microscopy. The rate of fluorescence decrease was normalized to DMSO control and analyzed using does-response equation.

[6] = Table 2, 1 mM DTT in assay reduces disulfides to monomeric active species
[7] = Table 1, metal binding pharmacophore fragments

T1 sequence (O00487 whole entry, looked up, the tested form may be a part): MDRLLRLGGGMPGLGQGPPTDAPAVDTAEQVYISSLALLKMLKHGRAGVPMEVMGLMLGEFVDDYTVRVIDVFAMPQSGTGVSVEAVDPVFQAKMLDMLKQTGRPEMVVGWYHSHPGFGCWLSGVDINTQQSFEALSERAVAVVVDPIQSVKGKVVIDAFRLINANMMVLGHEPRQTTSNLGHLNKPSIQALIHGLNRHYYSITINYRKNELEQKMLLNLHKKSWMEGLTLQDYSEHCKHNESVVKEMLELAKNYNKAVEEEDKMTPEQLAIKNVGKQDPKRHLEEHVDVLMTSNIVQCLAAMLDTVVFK

Rpn11 assay activity (in words) [1] | IC50 [1, 7] [µM] | SMILES | IC50 [2] [µM] | specificity for Rpn11 versus Csn5 and/or AMSH (in words) [3] | IC50 [1, 6] [µM] | IC50 [4] [µM] | IC50 [5] [µM]
less active than 8TQ | – | O=C(NCc1cccs1)c1ccc2cccc(SSc3cccc4ccc(C(=O)NCc5cccs5)nc34)c2n1 [8,8′-Disulfanediylbis(N-(thiophen-2-ylmethyl)quinoline-2-carboxamide)] | – | – | – | – | –
less active than 8TQ | – | O=C(NCc1ccccc1)c1ccc2cccc(SSc3cccc4ccc(C(=O)NCc5ccccc5)nc34)c2n1 [8,8′-Disulfanediylbis(N-benzylquinoline-2-carboxamide)] | – | – | – | – | –
– | – | NC(=O)c1cnc2c(SSc3cccc4cc(C(N)=O)cnc34)cccc2c1 [Compound 1, 8,8′-Disulfanediylbis(quinoline-3-carboxamide)] | 1.2 | specific inhibitors of Rpn11 | 1 | 15 | 1.2
– | – | CNC(=O)c1cnc2c(SSc3cccc4cc(C(=O)NC)cnc34)cccc2c1 [Compound 2, 8,8′-Disulfanediylbis(N-methylquinoline-3-carboxamide)] | 4.8 | – | – | 68 | –
– | – | O=C(Nc1nccs1)c1cnc2c(SSc3cccc4cc(C(=O)Nc5nccs5)cnc34)cccc2c1 [Compound 5, 8,8′-Disulfanediylbis(N-(thiazol-2-yl)quinoline-3-carboxamide)] | 3.3 | specific inhibitors of Rpn11 | – | 32 | –
– | – | O=C(NCC1CCCO1)c1cnc2c(SSc3cccc4cc(C(=O)NCC5CCCO5)cnc34)cccc2c1 (stereo not shown) [Compound 6, 8,8′-Disulfanediylbis(N-((tetrahydrofuran-2-yl)methyl)quinoline-3-carboxamide)] | 6.8 | – | 4.6 | 41.3 | –
– | – | O=C(NCc1ccco1)c1cnc2c(SSc3cccc4cc(C(=O)NCc5ccco5)cnc34)cccc2c1 [Compound 7, 8,8′-Disulfanediylbis(N-(furan-2-ylmethyl)quinoline-3-carboxamide)] | 0.9 | – | 0.9 | 0.2 | –
– | – | O=C(NCc1cccs1)c1cnc2c(SSc3cccc4cc(C(=O)NCc5cccs5)cnc34)cccc2c1 [Compound 8, 8,8′-Disulfanediylbis(N-(thiophen-2-ylmethyl)quinoline-3-carboxamide)] | 1.3 | – | 0.8 | 16 | –
highly potent fragment | 2.8 ± 0.35 | Sc1cccc2cccnc12 [Compound 8TQ, 8-thioquinoline, reference compound] | – | – | – | – | –
– | 15 | Sc1ccnc2cccnc12 [Compound 8e, 1,5-Naphthyridine-4-thiol] | – | – | – | – | –
– | – | O=C(NCc1nccs1)c1cnc2c(SSc3cccc4cc(C(=O)NCc5nccs5)cnc34)cccc2c1 [Compound 9, 8,8′-Disulfanediylbis(N-(thiazol-2-ylmethyl)quinoline-3-carboxamide)] | 7.8 | specific inhibitors of Rpn11 | – | 23 | –
less active than 8TQ | – | Cc1ccc2cccc(S)c2n1 [Compound 9c, 2-Methylquinoline-8-thiol] | – | – | – | – | –
– | – | O=C(NCCc1ccco1)c1cnc2c(SSc3cccc4cc(C(=O)NCCc5ccco5)cnc34)cccc2c1 [Compound 10, 8,8′-Disulfanediylbis(N-(2-(furan-2-yl)ethyl)quinoline-3-carboxamide)] | 1.7 | – | – | 6.9 | 1.4
– | – | O=C(NCCc1cccs1)c1cnc2c(SSc3cccc4cc(C(=O)NCCc5cccs5)cnc34)cccc2c1 [Compound 11, 8,8′-Disulfanediylbis(N-(2-(thiophen-2-yl)ethyl)quinoline-3-carboxamide)] | 1.3 | specific inhibitors of Rpn11 | 0.3 | 4 | –
– | – | O=C(NCCc1nccs1)c1cnc2c(SSc3cccc4cc(C(=O)NCCc5nccs5)cnc34)cccc2c1 [Compound 12, 8,8′-Disulfanediylbis(N-(2-(thiazol-2-yl)ethyl)quinoline-3-carboxamide)] | – | specific inhibitors of Rpn11 | – | 30 | 0.57
– | – | O=C(NCc1ccccn1)c1cnc2c(SSc3cccc4cc(C(=O)NCc5ccccn5)cnc34)cccc2c1 [Compound 13, 8,8′-Disulfanediylbis(N-(pyridin-2-ylmethyl)quinoline-3-carboxamide)] | 16.7 | – | 3.9 | 56.7 | > 10
– | – | O=C(NCc1cccnc1)c1cnc2c(SSc3cccc4cc(C(=O)NCc5cccnc5)cnc34)cccc2c1 [Compound 14, 8,8′-Disulfanediylbis(N-(pyridin-3-ylmethyl)quinoline-3-carboxamide)] | 3.52 | – | 3.1 | 128 | > 10
less active than 8TQ | – | O=C(O)c1ccc2cccc(SSc3cccc4ccc(C(=O)O)nc34)c2n1 [Compound 14b, 8,8′-Disulfanediylbis(quinoline-2-carboxylic acid)] | – | – | – | – | –
– | – | O=C(NCc1ccccc1)c1cnc2c(SSc3cccc4cc(C(=O)NCc5ccccc5)cnc34)cccc2c1 [Compound 16, 8,8′-Disulfanediylbis(N-benzylquinoline-3-carboxamide)] | 15 | – | 1.1 | 11 | > 10
– | – | O=C(NCc1ccc(F)cc1)c1cnc2c(SSc3cccc4cc(C(=O)NCc5ccc(F)cc5)cnc34)cccc2c1 [Compound 17, 8,8′-Disulfanediylbis(N-(4-fluorobenzyl)quinoline-3-carboxamide)] | 0.85 | specific inhibitors of Rpn11 | – | 18 | > 10
– | – | COc1ccc(CNC(=O)c2cnc3c(SSc4cccc5cc(C(=O)NCc6ccc(OC)cc6)cnc45)cccc3c2)cc1 [Compound 19, 8,8′-Disulfanediylbis(N-(4-methoxybenzyl)quinoline-3-carboxamide)] | 0.6 | specific inhibitors of Rpn11 | – | 0.5 | > 10
– | – | O=C(NCc1ccc2c(c1)OCO2)c1cnc2c(SSc3cccc4cc(C(=O)NCc5ccc6c(c5)OCO6)cnc34)cccc2c1 [Compound 20, 8,8′-Disulfanediylbis(N-(benzo[d][1,3]dioxol-5-ylmethyl)quinoline-3-carboxamide)] | – | – | 0.9 | 7 | > 10
– | – | O=C(NCc1ccc(N2CCOCC2)cc1)c1cnc2c(SSc3cccc4cc(C(=O)NCc5ccc(N6CCOCC6)cc5)cnc34)cccc2c1 [Compound 21, 8,8′-Disulfanediylbis(N-(4-morpholinobenzyl)quinoline-3-carboxamide)] | – | – | 0.8 | – | > 10
– | – | O=C(NCCN1CCOCC1)c1cnc2c(SSc3cccc4cc(C(=O)NCCN5CCOCC5)cnc34)cccc2c1 [Compound 22, 8,8′-Disulfanediylbis(N-(2-morpholinoethyl)quinoline-3-carboxamide)] | 25.4 | – | 6.4 | 99 | > 10
– | – | O=C(CCCC[C@@H]1SC[C@@H]2NC(=O)N[C@@H]21)NCCOCCOCCOCCNC(=O)c1cnc2c(S)cccc2c1 [Compound 32] | 0.4 | – | 0.4 | 13.8 | 4.1
less active than 8TQ | – | COC(=O)c1ccc2cccc(SSc3cccc4ccc(C(=O)OC)nc34)c2n1 [Dimethyl 8,8′-disulfanediylbis(quinoline-2-carboxylate)] | – | – | – | – | –
– | > 100 | Sc1cccc2ccccc12 [reference compound] | – | – | – | – | –
– | > 100 | CSc1cccc2cccnc12 [reference compound] | – | – | – | – | –
– | > 100 | Cc1cccc2cccnc12 [reference compound] | – | – | – | – | –
– | > 100 | Sc1cccc2ncccc12 [reference compound] | – | – | – | – | –

SMILES | Rpn11 assay activity (in words) [1] | IC50 [1, 7] [µM] | IC50 [2] [µM] | specificity for Rpn11 versus Csn5 and/or AMSH (in words) [3] | IC50 [1, 6] [µM] | IC50 [4] [µM] | IC50 [5] [µM]
Nc1cccc2cccnc12 [reference compound] | – | > 100 | – | – | – | – | –
Oc1cccc2cccnc12 [reference compound] | – | > 100 | – | – | – | – | –
